From patent US11944623B2, “Modulators of Kv3 channels to treat pain” (Autifony Therapeutics Limited, priority 2015, dated 2024)

Legend:
[1] = molecular target: T1, Human Kv7.2/7.3 heteromeric channels (Homo sapiens, UniProt O43525+O43526); test: Kv7.2/7.3 patch clamp assay; format: cell-based; conditions: 10 µM concentration (N=3)
T1 construct: expressed in transfected cells
Protocol: Human Kv7.2/7.3 heteromeric channels were stably expressed in a HEK293 cell line. Cells were plated onto 13 mm plastic dishes and incubated for 1-3 days in a 5% CO2 incubator for conventional whole-cell patch clamp experiments. Electrophysiological recordings were made using an automated patch clamp platform (QPatch, Sophion Biosciences). Internal (pipette) solution contained (in mM): K-Aspartate (130), KCl (15), MgCl2 (5.5), Na2ATP (5), K2PCr (5), EGTA (20), HEPES (10), pH 7.25 with KOH, was used to study Kv7.2/7.3 currents. Cells were superfused at room temperature with a standard physiological solution containing (mM): NaCl (140), KCl (4), CaCl2 (2), MgCl2 (1), glucose (10), HEPES (10), pH 7.35 with NaOH.
Patch pipettes were pulled from borosilicate glass and had tip resistances of 2-4 MW when filled with the above solution. Capacitative transients were compensated electronically from the recordings. However, the voltage drop across the series resistance and the liquid junction potential were not compensated. The series resistance was generally less than 10 MG (n=5 cells), with a mean cell capacity of 25±5 pF.
In some cases, manual patch clamp was carried out using an Axon 200B amplifier (Axon Instruments). The software program pClamp (version 10) from Axon Instruments was used to stimulate and record electrical activity. […]

[2] = tested on: rat model of neuropathic pain; test: Neuropathic pain model (partial ligation of the sciatic nerve): paw withdrawal to mechanical pressure and cold (10° C.), general observations; format: in vivo; conditions: for changes in contralateral paw withdrawals and latencies: just attained significance at 3 hours on mechanical
Protocol: The efficacy of Compounds 1, 2, 3 and 4 was investigated using rat models of neuropathic and/or persistent inflammatory pain.
Subjects comprised male, Wistar Hanover rats, 6 animals per group (225±2 g for Compound 1 studies and Compound 2 studies; 214±1 g for Compound 3 studies; 236±1 g for Compound 4 studies).
Vehicle (12% Captisol®; 0.5% w/v HPMC and 0.1% w/v Tween-80; 5 ml/kg via the intraperitoneal route) was prepared using autoclaved deionized water not more than one week prior to use.
The details of the studies performed are outlined in Table 1.
The control for the neuropathic pain model was lamotrigine, administered at 30 mg/kg via oral delivery. The control for the inflammatory pain model was diclofenac, administered at 30 mg/kg via oral delivery. Statistical analysis was performed using one-way ANOVA, and comparisons were performed with time-matched vehicle group using Tukey's HSD test wherein * p<0.05, ** p<0.01, *** p<0.001.
Treatment groups were randomised and blinded. Groups of 6 rats were used.
Neuropathic pain was induced by partial ligation of the sciatic nerve. Briefly, the rats were anaesthetised (isoflurane/O2 inhalation), the left sciatic nerve exposed at mid-thigh level through a small incision and ⅓ to ½ of the nerve thickness tightly ligated within a 7.0 silk suture. The wound was closed with surgical glue. Animals were allowed to recover and tested 12-15 days following surgery.
Withdrawal thresholds or latencies were measured on both the ipsilateral (ligated) and contralateral (non-ligated) paws, prior to (predose) and then up to 24 h following drug or vehicle administration.
Pre-dose behavioural measurements were obtained by measuring paw withdrawals 14 days following nerve ligation; before the initiation of drug treatment. Following treatment, further readings were taken at 1, 3, 6 and 24 hour after administration.
Mechanical hyperalgesia was examined in a model of neuropathic pain by measuring paw withdrawal thresholds (PWT) to increasing mechanical force applied to the dorsal surface of the rat paw using an Analgesymeter (Ugo-Basile, Milan) equipped with a wedge-shaped probe (area 1.75 mm^2). Cut-off was set at 250 g and the end-point was taken as withdrawal of the hind paw. Both ipsilateral and contralateral paw withdrawal readings were taken.
Cold sensitivity was assessed using a commercially available cold-plate (Ugo Basile, Milan). The cold plate was allowed to stabilize for 5 minutes at the set temperature prior to testing. Paw withdrawal latencies (PWL) were determined with the cold-plate set at 10° C. The animals were lightly restrained and each hind paw in turn placed onto the surface of the cold-plate. The end point was taken as the withdrawal of the paw and recorded as the withdrawal latency for the ipsilateral and the contralateral paw. A maximum cut-off of 30 seconds was used for each paw.
In addition to behavioural pain readings, each rat was observed throughout the study for changes in general behaviour.
Data were expressed as withdrawal threshold (g) or withdrawal latencies (s) and percentage reversals calculated according to the following formula: […]
Statistical analysis was carried out on withdrawal threshold readings using ANOVA with repeated measures followed by Tukey's HSD test. The level for statistical significance was set as p<0.05.

[3] = Study 1 of each compound (Table 1), 60 mg/kg i.p., 3 hours post-dose
[4] = Study 1 of each compound, 30 mg/kg i.p., 3 hours post-dose
[5] = Study 1 of each compound, 60 mg/kg i.p.
[6] = Study 2, 10 mg/kg i.p., 3 hours post-dose
[7] = Study 2, 30 mg/kg i.p., 3 hours post-dose
[8] = Study 2, 60 mg/kg i.p., 3 hours post-dose
[9] = Study 1, 30 mg/kg i.p., 1 hour post-dose
[10] = Study 1, 60 mg/kg i.p., 1 hour post-dose

Cc1ccc(Oc2ncc(N3C(=O)NC(C)(C)C3=O)cn2)c2c1OCC21CC1 [Compound 1, 5,5-dimethyl-3-[2-(7-methylspiro[2H-benzofuran-3,1′-cyclopropane]-4-yl)oxypyrimidin-5-yl]imidazolidine-2,4-dione]
effect on Kv7.2/7.3-mediated currents [1]: Neither compound was found to have a significant effect
statistical activity of the lower dose ([2]; Study 1, 30 mg/kg i.p.): only statistically active against mechanical hyperalgesia
reversal of mechanical sensitivity ([2]; Study 1, 30 mg/kg i.p., 3 hours post-dose): 51%
flaccidity (general observation) ([2]; Study 1, 1 and 3 hour post-dose, both doses): slightly flaccid
reversal of cold sensitivity [2, 3]: 125%
reversal of mechanical sensitivity [2, 3]: 68%
reversal of cold sensitivity [2, 4]: 52%
efficacy at 6 hours post-dose [2, 5]: still efficacious
reversal of cold sensitivity [2, 6]: 39%
reversal of mechanical sensitivity [2, 6]: 31%
rats with mild flaccidity ([2]; Study 2, 30 mg/kg i.p.): 1/6
reversal of cold sensitivity [2, 7]: 68%
reversal of mechanical sensitivity [2, 7]: 73%
rats with mild flaccidity ([2]; Study 2, 60 mg/kg i.p.): 2/6
reversal of cold sensitivity [2, 8]: 76%
reversal of mechanical sensitivity [2, 8]: 81%
changes in contralateral paw withdrawals and latencies ([2]; Study 2): small changes

CC[C@@]1(C)NC(=O)N(c2cnc(Oc3ccc(C)c(OC(F)(F)F)c3)nc2)C1=O [Compound 2, (5R)-5-ethyl-5-methyl-3-[2-({4-methyl-3-[(trifluoromethyl)oxy]phenyl}oxy)-5-pyrimidinyl]-2,4-imidazolidinedione]
effect on Kv7.2/7.3-mediated currents [1]: Neither compound was found to have a significant effect
reversal of cold sensitivity [2, 9]: 42%
reversal of mechanical sensitivity [2, 9]: 53%
reversal of cold sensitivity [2, 10]: 71%
reversal of mechanical sensitivity [2, 10]: 47%
duration of efficacy ([2]; Study 1, both doses (30 and 60 mg/kg i.p.)): efficacious at 3 hours by not by 6 hours post-dose
behavioural changes in the rats (general observations) ([2]; Study 1 of each compound): no apparent behavioural changes
reversal of cold sensitivity [2, 4]: 55%
behavioural changes in the rats (general observations) ([2]; Study 2): no apparent behavioural changes
reversal of cold sensitivity [2, 6]: 35%
reversal of mechanical sensitivity [2, 6]: 31%
reversal of cold sensitivity [2, 7]: 70%
reversal of mechanical sensitivity [2, 7]: 72%
reversal of cold sensitivity [2, 8]: 95%
reversal of mechanical sensitivity [2, 8]: 81%
changes in contralateral paw withdrawals and latencies ([2]; Study 2): small changes

Cc1ccc(Oc2ccc(-n3c(C)n[nH]c3=O)cn2)c2c1OCC21CC1 [Compound 3, 5-methyl-4-{6-[(7-methylspiro[1-benzofuran-3,1′-cyclopropan]-4-yl)oxy]pyridin-3-yl}-2,4-dihydro-3H-1,2,4-triazol-3-one]
statistical significance against mechanical and cold hyperalgesia ([2]; Compound 3 neuropathic study, 60 mg/kg i.p.): attained statistical significance
changes in contralateral paw withdrawals/latencies ([2]; Compound 3 neuropathic study, 30 and 60 mg/kg i.p.): no significant changes
behavioural changes in the rats (general observations) ([2]; Study 1 of each compound): no behavioural changes noted
reversal of cold sensitivity [2, 3]: 52%
reversal of mechanical sensitivity [2, 3]: 46%
efficacy at 6 hours post-dose [2, 5]: activity was still evident
